Data published in US20240050434A1, “HORMAD1 THERAPEUTICS” (Royal Cancer Hospital, priority 2020, published 2024).

System: RPE1 cells expressing a doxycycline-inducible HORMAD1 construct
Assay: Cell viability by cell titre glo in RPE1 cells with doxycycline-inducible HORMAD1
Type: cell-based
Experimental: RPE1 cells expressing a doxycycline-inducible HORMAD1 construct were treated with doxycycline or vehicle. […] Six days post HORMAD1 induction and 5 days post drug, cell viability was estimated using cell titre glo reagent. Surviving fractions were calculated (normalised to vehicle treated cells).
RPE1 and SUM159 cells expressing a doxycycline-inducible HORMAD1 construct were treated with doxycycline or vehicle. […] Surviving fractions were calculated (normalised to vehicle treated cells). (FIGS. 7a, b and 14c and d). Data from 3 replicas was analysed using 2-way ANOVA. 5 days post drugging, cell viability was estimated using cell titre glo reagent. Surviving fractions were calculated (normalised to vehicle treated cells). Data from 4 replicas was analysed using 2-way ANOVA.
RPE1 cells expressing a doxycycline-inducible HORMAD1 construct were treated with doxycycline or vehicle. […] 5 days post drugging, cell viability was estimated using cell titre glo reagent. Surviving fractions were calculated (normalised to vehicle treated cells).
RPE1 cells expressing a doxycycline-inducible HORMAD1 construct were treated with doxycycline or vehicle in order to induce HORMAD1 expression. […] Using cell titre glo as a measure of cell viability, surviving fractions were calculated (normalised to eribulin alone).
RPE1 cells expressing a doxycycline-inducible HORMAD1 construct were treated with doxycycline or vehicle. […] Using cell titre glo as a measure of cell viability, surviving fractions were calculated (normalised to olaparib alone).

COc1cnccc1Nc1nc(-c2nn(Cc3c(F)cc(OCCO)cc3F)c3ccccc23)ncc1OC [BAY-1816032]
more effectively inhibited: growth inhibition (surviving fraction) of HORMAD1 expressing versus HORMAD1-negative RPE1 cells, with eribulin (increasing doses alongside 0.4 nm eribulin, normalised to eribulin alone) | growth inhibition (surviving fraction) of HORMAD1 expressing versus HORMAD1-negative RPE1 cells, with olaparib (increasing doses alongside 0.47 μm olaparib, normalised to olaparib alone) | growth inhibition (surviving fraction) of HORMAD1 expressing versus HORMAD1-negative RPE1 cells (increasing doses, 5 days post drug, cell titre glo, normalised to vehicle)
